# Source: patent publication US10532113B2, “Polymeric systems and uses thereof in theranostic applications” (Ramot at Tel-Aviv University Ltd., priority 2014, dated 2020)
# What was measured:
# [1] = test system: human MDA-MB-231 mammary adenocarcinoma cells; assay: Cell viability assay, HPMA conjugate study, MDA-MB-231 cells; format: cell-based; details: 72 hours incubation (FIG. 10C), read-out: IC50, proliferation of MDA-MB-231 cells
# Procedure: 4T1 cells (3,000 cells/well), HUVEC (10,000 cells/well) and MDA-MB-231 cells (10,000 cells/well) were plated onto 24-well culture plates in RPMI supplemented with 2% FBS, EBM-2 supplemented with 5% FBS or in DMEM supplemented with 10% FBS respectively, and incubated for 24 hours (37° C.; 5% CO2). The medium was then replaced with RPMI 1640 supplemented with 10% FBS, EGM-2 or DMEM supplemented with 10% FBS. Cells were exposed to PTX and PTX bound-conjugates at serial dilutions, at equivalent dose of the free PTX. […]
# [2] = test system: HUVEC; assay: HUVEC migration scratch assay; format: cell-based, human; details: PTX-equivalent concentration 20 nM; 12 h
# Procedure: The migration of HUVEC in the presence of PGA-PTX-Cy5 conjugate was evaluated using the scratch assay. The method is based on the observation that, upon creation of a new artificial gap, so called “scratch”, on a confluent cell monolayer, the cells on the edge of the newly created gap will move toward the opening to close the “scratch” until new cell-cell contacts are established again. […] At time zero (t=0) images were taken by phase-contrast microscope in a reference point. Following another 12 h of incubation, images of the reference point were taken again. The samples were analyzed quantitatively by ImageJ software.
# [3] = test system: human WM239A melanoma cells; assay: Cell viability assay, PGA-PTX-Cy5 study, WM239A cells; format: cell-based; details: 72 hours incubation, read-out: IC50, proliferation of WM239A cells
# Procedure: (§1) 4T1 cells (8,000 cells/wells), WM239A cells (15,000 cells/well) and MDA-MB-231 cells (10,000/well) were plated onto 24-well culture in RPMI supplemented with 10% FBS, or in DMEM supplemented with 10% FBS respectively, and incubated for 24 hours (37° C.; 5% CO2). The medium was then replaced with RPMI 1640 supplemented with 10% FBS or DMEM supplemented with 10% FBS.
# (§2) Cells were exposed to PTX and PTX-bound conjugates at serial dilutions, at equivalent dose of free PTX. Number of viable cells was counted by a Z1 Coulter Counter® Cell and Particle Counter (Beckman Coulter®) following 72 hours of incubation.
# [4] = test system: murine 4T1 adenocarcinoma cells; assay: Cell viability assay, PGA-PTX-Cy5 study, 4T1 cells; format: cell-based; details: Mus musculus, 72 hours incubation, read-out: IC50, proliferation of 4T1 cells
# Procedure: as §1, §2
# [5] = test system: human MDA-MB-231 mammary adenocarcinoma cells; assay: Cell viability assay, PGA-PTX-Cy5 study, MDA-MB-231 cells; format: cell-based; details: 72 hours incubation, read-out: IC50, proliferation of MDA-MB-231 cells
# Procedure: as §1, §2
# [6] = test system: murine 4T1 mammary adenocarcinoma cells; assay: Cell viability assay, HPMA conjugate study, 4T1 cells; format: cell-based; details: Mus musculus, 96 hours incubation, read-out: IC50, proliferation of 4T1 cells
# Procedure: (§3) 4T1 cells (3,000 cells/well), HUVEC (10,000 cells/well) and MDA-MB-231 cells (10,000 cells/well) were plated onto 24-well culture plates in RPMI supplemented with 2% FBS, EBM-2 supplemented with 5% FBS or in DMEM supplemented with 10% FBS respectively, and incubated for 24 hours (37° C.; 5% CO2). The medium was then replaced with RPMI 1640 supplemented with 10% FBS, EGM-2 or DMEM supplemented with 10% FBS. Cells were exposed to PTX and PTX bound-conjugates at serial dilutions, at equivalent dose of the free PTX. Number of viable cells was counted by a Z1 Coulter Counter® Cell and Particle Counter (Beckman Coulter®) following 96 hours of incubation.
# [7] = test system: HUVEC; assay: Cell viability assay, HPMA conjugate study, HUVEC proliferation; format: cell-based; details: Homo sapiens, 96 hours incubation
# Procedure: as §3
smiles,measurement,setting,value
"CC(=O)O[C@H]1C(=O)[C@@]2(C)[C@H]([C@H](OC(=O)c3ccccc3)[C@]3(O)C[C@H](OC(=O)[C@H](O)[C@@H](NC(=O)c4ccccc4)c4ccccc4)C(C)=C1C3(C)C)[C@]1(OC(C)=O)CO[C@@H]1C[C@@H]2O [PTX, Paclitaxel]",IC50,[1],~0.5 nM
same,"HUVEC migration, gap closure",[2],20%
same,IC50,[3],~5 nM
same,IC50,[4],~60 nM
same,IC50,[5],~2 nM
same,IC50,[6],~35 nM
same,IC50,[7],~2 nM
